In the assay the test system is L1210 leukemia ip in BDF1 mice, survival T/C. The assay can be described thus: NCI In Vivo Anticancer Drug Screen. Data for tumor model L1210 Leukemia (intraperitoneal) in B6D2F1 (BDF1) mice. The following applies: endpoint: mean survival time, higher = longer survival. The gist of the method:
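Mice bearing the transplanted tumor received compound or vehicle. Survival of the treated group was divided by that of the vehicle-treated control group to give the ratio.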

Where [1] appears, read: dose: 100.0 mg/kg/injection, schedule: Q01DX009 (ip), vehicle: Klucel (hydroxypropylcellulose) (HPC).
[2] abbreviates: dose: 200.0 mg/kg/injection, schedule: Q01DX009 (ip), vehicle: Klucel (hydroxypropylcellulose) (HPC).
Where [3] appears, read: dose: 400.0 mg/kg/injection, schedule: Q01DX009 (ip), vehicle: Klucel (hydroxypropylcellulose) (HPC).
The mark [4] stands for this setting: dose: 100.0 mg/kg/injection, schedule: Q01DX001 (ip), vehicle: saline.
Where [5] appears, read: dose: 200.0 mg/kg/injection, schedule: Q01DX001 (ip), vehicle: saline.
The mark [6] stands for this setting: dose: 400.0 mg/kg/injection, schedule: Q01DX001 (ip), vehicle: saline.
Where [7] appears, read: dose: 50.0 mg/kg/injection, schedule: Q01DX009 (ip), vehicle: saline.
The mark [8] stands for this setting: dose: 100.0 mg/kg/injection, schedule: Q01DX009 (ip), vehicle: saline.
The mark [9] stands for this setting: dose: 100.0 mg/kg/injection, schedule: Q04DX003 (ip), vehicle: saline.

“And” between values parts separate entries of the source, which are not always exact repeats. Identical values can stand only once. Toxic doses and inconclusive results are not listed.

As to `COc1ccc(N=Nc2sc(N)nc2-c2ccc(Cl)cc2)cc1`, the T/C is, setting by setting: (dose: 12.5 mg/kg/injection, schedule: Q01DX001 (ip), vehicle: saline with Tween-80) 93 % of control; (dose: 25.0 mg/kg/injection, schedule: Q01DX001 (ip), vehicle: saline with Tween-80) 90 % of control; (dose: 50.0 mg/kg/injection, schedule: Q01DX001 (ip), vehicle: saline with Tween-80) 101 % of control.

With `NCOC(=O)Cc1ccc(Br)cc1`, the T/C runs as follows: under setting [1], 98 % of control; (dose: 100.0 mg/kg/injection, schedule: Q04DX003 (ip), vehicle: Klucel (hydroxypropylcellulose) (HPC)) 96 % of control; under setting [2], 101 % of control; (dose: 200.0 mg/kg/injection, schedule: Q04DX003 (ip), vehicle: Klucel (hydroxypropylcellulose) (HPC)) 101 % of control; under setting [3], 96 % of control; (dose: 400.0 mg/kg/injection, schedule: Q04DX003 (ip), vehicle: Klucel (hydroxypropylcellulose) (HPC)) 101 % of control.

For `COc1ccccc1CN1CCCN(Cc2ccccc2OC)C1c1cc(Cl)cc(Cl)c1O`, the T/C (dose: 50.0 mg/kg/injection, schedule: Q01DX001 (ip), vehicle: saline) is 98 % of control; the T/C under setting [4] is 111 % of control; the T/C under setting [5] was 104 % of control; the T/C under setting [6] was 98 % of control.

Regarding `NN1CCCC1`, the T/C was 98 % of control under setting [7]; 96 % of control under setting [8]; 99 % of control under setting [9]; 96 % of control (dose: 200.0 mg/kg/injection, schedule: Q04DX003 (ip), vehicle: saline).

As for `C=CCc1cccc(O)c1O`, the T/C was 108 % of control (dose: 12.5 mg/kg/injection, schedule: Q04DX002 (ip), vehicle: saline with Tween-80); 96 % of control (dose: 25.0 mg/kg/injection, schedule: Q04DX002 (ip), vehicle: saline with Tween-80); 108 % of control (dose: 50.0 mg/kg/injection, schedule: Q04DX002 (ip), vehicle: saline with Tween-80).

As to `O=c1cc(-c2ccccc2)nc2ccccn12`, the T/C by setting is: (dose: 100.0 mg/kg/injection, schedule: Q01DX001 (ip), vehicle: saline with Tween-80) 101 % of control; (dose: 200.0 mg/kg/injection, schedule: Q01DX001 (ip), vehicle: saline with Tween-80) 101 % of control; (dose: 400.0 mg/kg/injection, schedule: Q01DX001 (ip), vehicle: saline with Tween-80) 95 % of control.

In the case of `Cc1ccc(/C=N/NC(=O)c2ccncc2)cc1`, the T/C (dose: 25.0 mg/kg/injection, schedule: Q01DX009 (ip), vehicle: Klucel (hydroxypropylcellulose) (HPC)) is 94 % of control; the T/C (dose: 50.0 mg/kg/injection, schedule: Q01DX009 (ip), vehicle: Klucel (hydroxypropylcellulose) (HPC)) is 96 % of control; the T/C under setting [1] was 94 % of control and 96 % of control.

With `CC(C)Sc1ncnc2nc[nH]c12`, the T/C by setting is: (dose: 2.5 mg/kg/injection, schedule: Q01DX009 (sc), vehicle: steriod suspending solution) 97 % of control; (dose: 5.0 mg/kg/injection, schedule: Q01DX009 (sc), vehicle: steriod suspending solution) 100 % of control; (dose: 10.0 mg/kg/injection, schedule: Q01DX009 (sc), vehicle: steriod suspending solution) 96 % of control; (dose: 18.0 mg/kg/injection, schedule: Q01DX009 (ip), vehicle: saline with Tween-80) 102 % of control; (dose: 27.0 mg/kg/injection, schedule: Q01DX009 (ip), vehicle: saline with Tween-80) 104 % of control; (dose: 40.0 mg/kg/injection, schedule: Q01DX009 (ip), vehicle: saline with Tween-80) 110 % of control. For the same compound, the T/C is 109 % of control (dose: 60.0 mg/kg/injection, schedule: Q01DX009 (ip), vehicle: saline with Tween-80); 103 % of control (dose: 75.0 mg/kg/injection, schedule: Q01DX001 (sc), vehicle: steriod suspending solution); 166 % of control (dose: 75.0 mg/kg/injection, schedule: Q01DX009 (sc), vehicle: steriod suspending solution); 160 % of control (dose: 150.0 mg/kg/injection, schedule: Q01DX009 (sc), vehicle: steriod suspending solution).

As to `CCc1c(Cl)c(C)c(Cl)c(O)c1Cl`, the T/C (dose: 100.0 mg/kg/injection, schedule: Q04DX003 (ip), vehicle: other) is 102 % of control and the T/C (dose: 200.0 mg/kg/injection, schedule: Q04DX003 (ip), vehicle: other) was 93 % of control.

Turning to `CCCCC(=O)N/N=C/c1ccccc1OCC`, the T/C under setting [4] is 102 % of control, the T/C under setting [5] is 107 % of control and the T/C under setting [6] was 93 % of control.

With `CC(=O)OCC(=O)[C@@]1(O)[C@H](C)C[C@H]2[C@@H]3C=C(C)C4=Cc5c(cnn5-c5ccc(F)cc5)C[C@]4(C)[C@H]3[C@@H](O)C[C@@]21C`, the T/C (dose: 0.62 mg/kg/injection, schedule: Q01DX015 (sc), vehicle: steriod suspending solution) was 120 % of control; the T/C (dose: 1.25 mg/kg/injection, schedule: Q01DX015 (sc), vehicle: steriod suspending solution) was 117 % of control; the T/C (dose: 2.5 mg/kg/injection, schedule: Q01DX015 (sc), vehicle: steriod suspending solution) was 102 % of control; the T/C (dose: 5.0 mg/kg/injection, schedule: Q01DX015 (sc), vehicle: steriod suspending solution) was 117 % of control and 123 % of control; the T/C (dose: 6.25 mg/kg/injection, schedule: Q01DX009 (sc), vehicle: steriod suspending solution) is 100 % of control; the T/C (dose: 10.0 mg/kg/injection, schedule: Q01DX015 (sc), vehicle: steriod suspending solution) was 111 % of control. The T/C (dose: 20.0 mg/kg/injection, schedule: Q01DX015 (sc), vehicle: steriod suspending solution) is 103 % of control; the T/C (dose: 40.0 mg/kg/injection, schedule: Q01DX015 (sc), vehicle: steriod suspending solution) is 101 % of control; the T/C (dose: 50.0 mg/kg/injection, schedule: Q04DX003 (sc), vehicle: steriod suspending solution) is 110 % of control; the T/C (dose: 100.0 mg/kg/injection, schedule: Q01DX001 (ip), vehicle: steriod suspending solution) was 98 % of control; the T/C (dose: 100.0 mg/kg/injection, schedule: Q04DX003 (sc), vehicle: steriod suspending solution) is 108 % of control; the T/C (dose: 160.0 mg/kg/injection, schedule: Q01DX015 (sc), vehicle: steriod suspending solution) is 91 % of control. Besides, the T/C by setting is: (dose: 200.0 mg/kg/injection, schedule: Q01DX001 (ip), vehicle: steriod suspending solution) 91 % of control; (dose: 200.0 mg/kg/injection, schedule: Q04DX003 (sc), vehicle: steriod suspending solution) 103 % of control.

For `CC(C)NC(=O)CCl`, the T/C was 96 % of control (dose: 25.0 mg/kg/injection, schedule: Q01DX009 (ip), vehicle: saline); 90 % of control (dose: 25.0 mg/kg/injection, schedule: Q04DX003 (ip), vehicle: saline); 91 % of control under setting [7]; 92 % of control (dose: 50.0 mg/kg/injection, schedule: Q04DX003 (ip), vehicle: saline); 98 % of control under setting [8]; 102 % of control and 92 % of control under setting [9].

Turning to `CCCCOCC1CO1` (configuration not stated), the T/C reads like this: (dose: 100.0 mg/kg/injection, schedule: Q04DX003 (ip), vehicle: saline with Tween-80) 92 % of control; (dose: 200.0 mg/kg/injection, schedule: Q04DX003 (ip), vehicle: saline with Tween-80) 95 % of control; (dose: 400.0 mg/kg/injection, schedule: Q04DX003 (ip), vehicle: saline with Tween-80) 98 % of control.

In the case of `O=[N+]([O-])c1cc([N+](=O)[O-])c2ccc(Cl)nc2c1O`, the T/C under setting [4] was 98 % of control, the T/C under setting [5] was 98 % of control and the T/C under setting [6] is 96 % of control.

Consider `CN1C(=O)NC(C)(CCOCc2ccccc2)C1=O` (configuration not stated), for which the T/C (dose: 50.0 mg/kg/injection, schedule: Q01DX001 (ip), vehicle: carboxymethylcellulose (CMC)) was 96 % of control; the T/C (dose: 100.0 mg/kg/injection, schedule: Q01DX001 (ip), vehicle: carboxymethylcellulose (CMC)) is 107 % of control; the T/C (dose: 200.0 mg/kg/injection, schedule: Q01DX001 (ip), vehicle: carboxymethylcellulose (CMC)) was 100 % of control; the T/C (dose: 400.0 mg/kg/injection, schedule: Q01DX001 (ip), vehicle: carboxymethylcellulose (CMC)) was 100 % of control.

For `N#CCc1cc2c(cc1[N+](=O)[O-])OCO2`, the T/C by setting is: under setting [4], 97 % of control; under setting [5], 87 % of control; under setting [6], 97 % of control.

For `O=C(C1CC1c1ccccc1)N1CCN(c2ccccc2)CC1` (configuration not stated), the T/C under setting [1] was 98 % of control, the T/C under setting [2] is 90 % of control and the T/C under setting [3] is 100 % of control.
